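Cultured in 96-well plates, cells were exposed to test compound for 48 hours across five concentrations. GI50 = concentration required for 50% inhibition of growth.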 Calls of active or inactive are those of the source. Cut-off read from the data, not from the text of the source: active = GI50 up to about 1.1 µM and inactive = higher.
How the values were obtained:
Assay in all cases: inhibition of tumour cell growth, NCI panel, 48 h
[1] = test system: 786-0
[2] = test system: A498
[3] = test system: A549
[4] = test system: ACHN
[5] = test system: CAKI-1
[6] = test system: CCRF-CEM
[7] = test system: COLO 205
[8] = test system: DLD-1
[9] = test system: DMS-114
[10] = test system: DMS-273
[11] = test system: EKVX
[12] = test system: HCC 2998
[13] = test system: HCT-116
[14] = test system: HCT-15
[15] = test system: HL-60
[16] = test system: HOP-18
[17] = test system: HOP-62
[18] = test system: HOP-92
[19] = test system: HT-29
[20] = test system: IGROV-1
[21] = test system: K562
[22] = test system: KM-20L2
[23] = test system: KM12
[24] = test system: LOX IMVI
[25] = test system: LXFL 529
[26] = test system: M14
[27] = test system: M19-MEL
[28] = test system: MOLT-4
[29] = test system: Malme-3M
[30] = test system: NCI-H226
[31] = test system: NCI-H23
[32] = test system: NCI-H460
[33] = test system: NCI-H522
[34] = test system: OVCAR-3
[35] = test system: OVCAR-4
[36] = test system: OVCAR-5
[37] = test system: OVCAR-8
[38] = test system: RPMI-8226
[39] = test system: RXF 393
[40] = test system: SF-268
[41] = test system: SF-295
[42] = test system: SF-539
[43] = test system: SK-MEL-28
[44] = test system: SK-MEL-2
[45] = test system: SK-MEL-5
[46] = test system: SK-OV-3
[47] = test system: SN12C
[48] = test system: SNB-19
[49] = test system: SNB-75
[50] = test system: SNB-78
[51] = test system: SR
[52] = test system: SW-620
[53] = test system: TK-10
[54] = test system: U-251
[55] = test system: UACC-257
[56] = test system: UACC-62
[57] = test system: UO-31
[58] = test system: XF498

SMILES: [O-][S+]1Nc2cccc(C(F)(F)F)c2S1 (stereo not drawn)
- GI50 [1]: 42.1 µM (inactive)
- GI50 [2]: 22.9 µM (inactive)
- GI50 [3]: 34 µM (inactive)
- GI50 [4]: 37.2 µM (inactive)
- GI50 [5]: 30.5 µM (inactive)
- GI50 [6]: 6.78 µM (inactive)
- GI50 [7]: 19.8 µM (inactive)
- GI50 [8]: 34.4 µM (inactive)
- GI50 [9]: 20.1 µM (inactive)
- GI50 [10]: 25.1 µM (inactive)
- GI50 [11]: 38.8 µM (inactive)
- GI50 [12]: 26.4 µM (inactive)
- GI50 [13]: 27.3 µM (inactive)
- GI50 [14]: 18.6 µM
- GI50 [15]: 7.66 µM (inactive)
- GI50 [16]: 72.4 µM (inactive)
- GI50 [17]: 49.8 µM (inactive)
- GI50 [18]: 35.6 µM (inactive)
- GI50 [19]: 35.7 µM (inactive)
- GI50 [20]: 38.5 µM (inactive)
- GI50 [21]: 31.3 µM (inactive)
- GI50 [22]: 29.9 µM (inactive)
- GI50 [23]: 21.4 µM (inactive)
- GI50 [24]: 21.1 µM (inactive)
- GI50 [25]: 26.5 µM (inactive)
- GI50 [26]: 65.3 µM (inactive)
- GI50 [27]: 66.1 µM (inactive)
- GI50 [28]: 21 µM (inactive)
- GI50 [29]: 51.2 µM (inactive)
- GI50 [30]: 73.3 µM (inactive)
- GI50 [31]: 41.8 µM (inactive)
- GI50 [32]: 40.9 µM (inactive)
- GI50 [33]: 28.1 µM (inactive)
- GI50 [34]: 33.5 µM (inactive)
- GI50 [35]: 46.7 µM (inactive)
- GI50 [36]: 69.8 µM (inactive)
- GI50 [37]: 54.8 µM (inactive)
- GI50 [38]: 29 µM (inactive)
- GI50 [39]: 22.5 µM (inactive)
- GI50 [40]: 48 µM (inactive)
- GI50 [41]: 45.4 µM (inactive)
- GI50 [42]: 58.6 µM (inactive)
- GI50 [43]: > 100 µM (inactive)
- GI50 [44]: 24.3 µM (inactive)
- GI50 [45]: 42 µM (inactive)
- GI50 [46]: > 100 µM (inactive)
- GI50 [47]: 35.6 µM (inactive)
- GI50 [48]: 67.1 µM (inactive)
- GI50 [49]: 29.6 µM (inactive)
- GI50 [50]: 31.2 µM (inactive)
- GI50 [51]: 25.5 µM (inactive)
- GI50 [52]: 9.91 µM (inactive)
- GI50 [53]: 34.4 µM (inactive)
- GI50 [54]: 31.3 µM (inactive)
- GI50 [55]: 32.1 µM (inactive)
- GI50 [56]: 27.7 µM (inactive)
- GI50 [57]: 19.1 µM (inactive)
- GI50 [58]: 21.1 µM (inactive)
